# Results from patent US8871280B1, “Compositions and methods for treating fungal activity in plants or soil” (The United States of America, as represented by the …, priority 2011, dated 2014).
# Columns and labels:
# Rhizoctonia solani [1] = experiment: Greenhouse suppression of damping off of cucumber seedlings in R. solani infested soil amended with plant extract; assay type: in vivo, Rhizoctonia solani AG-4, isolate Rs 23A
# Rhizoctonia solani [2] = experiment: Poison food technique (contact action), mycelial growth inhibition in PDA; assay type: cell-based, Rhizoctonia solani AG-4, isolate Rs 23A; conditions: for PoisonB1 % inhibition: poison bed experiment 1; for PoisonB2 % inhibition: poison bed experiment 2
# Procedure: (§1) Fungal isolate and preparation of inoculum: Rhizoctonia solani AG-4, isolate Rs 23A is a highly virulent pathogenic isolate which infects many vegetables, ornamentals and turfgrasses (Lewis, J. A., and G. C. Papavizas, Soil Biology and Biochemistry, 9:195-201 (1987)). The fungus was grown in potato dextrose agar (PDA) plates and fungal plugs from the freshly growing mycelium were mixed with moist sterilized cracked wheat in a 2 L flask for 15 days in dark at 22° C. (Lakshman, D. K., et al., Proceedings of the National Academy of Science, USA, 95: 6425-6429 (1998)). The infested wheat was air dried in a sterile hood for 3 days, blended in a homogenizer and sieved through a mesh and stored at 2° C. before soil inoculation. A dose response of the inocula was carried out by thoroughly mixing using 0.25, 0.5, 0.75, 1.0, 1.25 and 1.50 g inoculums per Kg dry weight potting soil plus sterile water to maintain 25-30% moisture and incubating at room temperature for two weeks before sowing cucumber (cv muncher) seeds with the infested soil. The percent germination and post-emergence damping off of cucumber seedlings were recorded. The lowest inoculums dose that induced 100% postemergence damping off was estimated to be 1 to 1.25 g/Kg soil for inocula prepared over the span of the experiments. For soil fumigation with plant extracts (PEs), each time the minimum inoculum dose giving rise to 100% damping off was used.
# In vitro bioassays: Two in vitro bioassay methods were used to investigate the mycelial growth inhibitory potentials of PEs. In the poison food technique, test chemical/plant extract was mixed at concentrations of 15, 30, 45, 60, 75, and 150 μl per 20 ml autoclaved PDA at 50° C., poured on three sterile disposable plastic plates (100×15 mm, Fisherbrand) at 20 ml/plate and cooled to room temperature to solidify (Dhingra, O.D., and J. B. Sinclair, 1995, Basic Plant Pathology Methods, 2nd Edition, Lewis Publishers, Boca Raton and London). […] Each plate was seeded in the center with a 5 mm diameter agar disk of the freshly grown Rhizoctonia pathogen, mycelial side facing the medium, and sealed with stretched Parafilm® M (Fisher Scientific). The plates were incubated in the dark at room temperature and when the pathogen reached to the edge of the plates in the control treatment (soybean oil), radial measurement of fungal growth in plates treated with PEs were recorded by taking three measurements from each plate. The experiment was repeated one more time. The percent mycelial growth inhibition (MGI) due to PE was calculated using the following formula: […] where dc=Avg. radial growth in mm of pathogen in control plate; dt=avg. radial growth in mm of pathogen in treated plate.
# Rhizoctonia solani [3] = experiment: Fungicidal vs fungistatic potential (regrowth of mycelial plugs on fresh PDA, 7 days); assay type: cell-based, Rhizoctonia solani AG-4, isolate Rs 23A
# Procedure: The fungicidal and fungistatic potential of the PEs were determined by the method described by Garber and Houstan (Garber R. H., and B. R. Houston, Phytopathology, 49: 449-450 (1959)). In brief, three 5 mm diameter plugs were taken from the peripheral mycelial growth from each plate and placed in a fresh PDA plate. Following incubation at room temperature for 7 days, observations were recorded for new mycelial growth (fungistatic) or no mycelial growth (fungicidal). As control, peripheral mycelial plugs from soybean oil amended PDA plates were checked for fresh mycelial growth in fresh PDA plates.
# cucumber seeds = experiment: Greenhouse assay of seed germination and phytotoxicity, soil treated with plant extract alone; conditions: cucumber, in vivo, 0.3 % of PE in soil (3000 ppm)
# Procedure: Soil treatment: For each treatment, 300 g of dry greenhouse soli (Pro-mix, Premier Horticulture LTD, Red Hill, Pa.) was thoroughly mixed with Rhizoctonia inoculum and incubated for 15 days as described above. […] The infested soil treated with only the carrier solution served as an untreated control. Following the treatment, the soil was thoroughly stirred to mix the contents and incubated in a double polythene bag closed tightly in the dark at room temperature for four days for fumigation to occur. Following the incubation, the bag was opened to allow as much PE to dissipate as possible. This was done by sprinkling the surface soil with sterile water every other day, and stirring the soil once every day for seven days. For assay of effect on seed germination and phytotoxicity of the plant extracts, soil was treated with plant extract formulations alone.
# Greenhouse studies: Treated soil from each treatment was distributed to 4-inch plastic pots into which 12 seeds of cucumbers (95-100% germination) were sown and lightly watered to keep soil moist. The treatments were color coded and pots were randomized across treatment. All plants were kept in a greenhouse between 20° C. (night) to 26° C. (day) with 14 h of light. There were three pots per treatment in each experiment, and the experiment was repeated three times. As positive control, a broad spectrum popular soil fungicide Banrot® 40 WP (The Scotts Company, Ohio) was used following manufacturer's recommendation to control the disease. Total number of seedlings without any sign of damping off in each pot was recorded and percentage of disease suppression were calculated four weeks after sowing cucumber seeds.
# Rhizoctonia solani [4] = experiment: Filter disk fumigation method, mycelial growth inhibition on PDA; assay type: cell-based, Rhizoctonia solani AG-4, isolate Rs 23A; conditions: for Fumig1 % inhibition: fumigation experiment 1; for Fumig2 % inhibition: fumigation experiment 2
# Procedure: as §1
# In the second protocol, the chemical was kept not in direct contact with the fungus and we hypothesized that the plant extract will most likely influence the growth of the pathogen by fumigation action. In this approach, three sterile 15 mm filter paper (Whatman International Ltd, Maidstone, UK) disks were placed on the edge of each of three plates on the PDA. Each disk was impregnated in the center with various amounts (5-50 ul/disk) of the test solution/suspension. For negative control, only soybean oil was placed in the filter disk. […] The average radial growth was calculated and the experiment was repeated one more time. Percent growth inhibition was calculated as reported for poison bed assay.
structure (smiles),measurement,setting,value
Cc1ccc(C(C)C)c(O)c1 [Thymol],% Disease suppression (+ PE + R. solani),"Rhizoctonia solani [1]; cucumber damping off, soil amendment at 0.3% (v/w), four weeks after sowing",27.75%
same,Avg. seed Germination (+ PE + R. solani),"Rhizoctonia solani [1]; cucumber, 12 seeds sown per pot, infested soil amended with 0.3% PE",3.33
same,PoisonB1 % inhibition,Rhizoctonia solani [2]; amount oil 15 μL/20 mL plate,100%
same,PoisonB2 % inhibition,Rhizoctonia solani [2]; amount oil 15 μL/20 mL plate,42%
same,PoisonB1 % inhibition,Rhizoctonia solani [2]; amount oil 30 μL/20 mL plate,100%
same,PoisonB2 % inhibition,Rhizoctonia solani [2]; amount oil 30 μL/20 mL plate,100%
same,PoisonB1 % inhibition,Rhizoctonia solani [2]; amount oil 45 μL/20 mL plate,100%
same,PoisonB2 % inhibition,Rhizoctonia solani [2]; amount oil 45 μL/20 mL plate,100%
same,PoisonB1 % inhibition,Rhizoctonia solani [2]; amount oil 60 μL/20 mL plate,100%
same,PoisonB2 % inhibition,Rhizoctonia solani [2]; amount oil 60 μL/20 mL plate,100%
same,PoisonB1 % inhibition,Rhizoctonia solani [2]; amount oil 75 μL/20 mL plate,100%
same,PoisonB2 % inhibition,Rhizoctonia solani [2]; amount oil 75 μL/20 mL plate,100%
same,PoisonB1 % inhibition,Rhizoctonia solani [2]; amount oil 150 μL/20 mL plate,100%
same,PoisonB2 % inhibition,Rhizoctonia solani [2]; amount oil 150 μL/20 mL plate,100%
same,Effect (fumigation),Rhizoctonia solani [3]; amount oil 15 μL/20 mL plate,S
same,"Effect (poison bed, contact action)",Rhizoctonia solani [3]; amount oil 15 μL/20 mL plate,S
same,Effect (fumigation),Rhizoctonia solani [3]; amount oil 30 μL/20 mL plate,S
same,"Effect (poison bed, contact action)",Rhizoctonia solani [3]; amount oil 30 μL/20 mL plate,S
same,Effect (fumigation),Rhizoctonia solani [3]; amount oil 45 μL/20 mL plate,S
same,"Effect (poison bed, contact action)",Rhizoctonia solani [3]; amount oil 45 μL/20 mL plate,S
same,Effect (fumigation),Rhizoctonia solani [3]; amount oil 60 μL/20 mL plate,S
same,"Effect (poison bed, contact action)",Rhizoctonia solani [3]; amount oil 60 μL/20 mL plate,S
same,Effect (fumigation),Rhizoctonia solani [3]; amount oil 75 μL/20 mL plate,S
same,"Effect (poison bed, contact action)",Rhizoctonia solani [3]; amount oil 75 μL/20 mL plate,S
same,Effect (fumigation),Rhizoctonia solani [3]; amount oil 150 μL/20 mL plate,S
same,"Effect (poison bed, contact action)",Rhizoctonia solani [3]; amount oil 150 μL/20 mL plate,S
same,Fungicidal vs fungistatic nature,"Rhizoctonia solani [3]; in vitro, fumigation and contact action",fungistatic
same,Avg. seed germination (+ PE only),cucumber seeds,8.00
same,Fumig1 % inhibition,Rhizoctonia solani [4]; amount oil 15 μL/20 mL plate,77%
same,Fumig2 % inhibition,Rhizoctonia solani [4]; amount oil 15 μL/20 mL plate,91%
same,Fumig1 % inhibition,Rhizoctonia solani [4]; amount oil 30 μL/20 mL plate,86%
same,Fumig2 % inhibition,Rhizoctonia solani [4]; amount oil 30 μL/20 mL plate,93%
same,Fumig1 % inhibition,Rhizoctonia solani [4]; amount oil 45 μL/20 mL plate,90%
same,Fumig2 % inhibition,Rhizoctonia solani [4]; amount oil 45 μL/20 mL plate,94%
same,Fumig1 % inhibition,Rhizoctonia solani [4]; amount oil 60 μL/20 mL plate,89%
same,Fumig1 % inhibition,Rhizoctonia solani [4]; amount oil 75 μL/20 mL plate,93%
same,Fumig1 % inhibition,Rhizoctonia solani [4]; amount oil 150 μL/20 mL plate,96%
